Laboratory results from US6281214A, “Biphenyl derivatives” (Eisai Co., Ltd, priority 1994, dated 2001).
Like-named read-outs stand apart in the source and are kept apart here.

Key:
Design in all cases: species or system SD rats
dopamine D2 receptor = target: T1, dopamine D2 receptor (Rattus norvegicus, UniProt P61169); assay: dopamine D2 receptor binding test ([3H] Spiperone Binding Test); conditions: 1 nM [3H] Spiperone, rat corpus striatum, room temperature, 60 minutes
T1 construct: the receptor fraction prepared from the corpus striatum was molten and suspended; from tissue; host or cells: corpus striatum of SD rats (membrane fraction)
Outline: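 Rat (SD, 6–8 weeks) corpus striatum membranes in 50 mM Krebs-Tris pH 7.4 were incubated with 1 nM [3H]spiperone at room temperature for 60 minutes, with nonspecific binding defined by excess spiperone. IC50 came from probit analysis; Ki was derived using radioligand concentration and Scatchard Kd.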

adrenergic α1 receptor = adrenergic α1 receptor binding test ([3H] Prazosin Binding Test); conditions: 1 nM [3H] Prazosin, rat cortex, room temperature, 60 minutes
Outline: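 Rat (SD, 6-8 weeks) cerebral cortex membranes in 50 mM Tris-HCl pH 7.4 incubated with 1 nM [3H]prazosin for 60 min at room temperature; nonspecific binding defined with phentolamine. IC50 by probit method, converted to Ki using radioligand concentration and Scatchard-derived Kd.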

serotonin S2 receptor = target: T2, serotonin S2 receptor (Rattus norvegicus, UniProt P14842); assay: serotonin S2 receptor binding test ([3H] Ketanserin Binding Test); conditions: 1 nM [3H] Ketanserin, rat cortex, 37° C., 15 minutes
T2 construct: The receptor fraction prepared from the cortex was molten and suspended; from tissue; host or cells: cerebral cortex of SD rats (membrane fraction)
Outline: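 Ki values came from probit IC50s corrected for radioligand concentration and Kd (Scatchard). Binding used 1 nM [3H]ketanserin with SD rat cortex membrane fractions, 15 min at 37 °C in Tris-HCl pH 7.4. Bound radioactivity was measured after GF/B filtration, with methysergide for nonspecific binding.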

[1] = read-out: Ki value, dopamine D2 receptor

T1 sequence (P61169 whole entry): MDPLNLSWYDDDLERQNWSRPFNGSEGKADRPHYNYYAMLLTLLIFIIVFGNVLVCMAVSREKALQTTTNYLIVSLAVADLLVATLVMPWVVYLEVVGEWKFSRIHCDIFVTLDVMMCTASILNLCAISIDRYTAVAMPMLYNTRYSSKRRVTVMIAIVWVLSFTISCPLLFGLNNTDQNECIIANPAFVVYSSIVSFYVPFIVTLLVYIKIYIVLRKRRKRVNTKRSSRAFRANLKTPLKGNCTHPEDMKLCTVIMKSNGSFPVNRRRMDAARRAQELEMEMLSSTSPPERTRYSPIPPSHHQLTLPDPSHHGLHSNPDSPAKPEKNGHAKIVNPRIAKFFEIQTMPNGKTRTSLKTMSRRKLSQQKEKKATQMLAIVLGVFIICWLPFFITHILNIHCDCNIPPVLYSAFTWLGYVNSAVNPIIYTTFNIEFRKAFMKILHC
T2 sequence (P14842 whole entry): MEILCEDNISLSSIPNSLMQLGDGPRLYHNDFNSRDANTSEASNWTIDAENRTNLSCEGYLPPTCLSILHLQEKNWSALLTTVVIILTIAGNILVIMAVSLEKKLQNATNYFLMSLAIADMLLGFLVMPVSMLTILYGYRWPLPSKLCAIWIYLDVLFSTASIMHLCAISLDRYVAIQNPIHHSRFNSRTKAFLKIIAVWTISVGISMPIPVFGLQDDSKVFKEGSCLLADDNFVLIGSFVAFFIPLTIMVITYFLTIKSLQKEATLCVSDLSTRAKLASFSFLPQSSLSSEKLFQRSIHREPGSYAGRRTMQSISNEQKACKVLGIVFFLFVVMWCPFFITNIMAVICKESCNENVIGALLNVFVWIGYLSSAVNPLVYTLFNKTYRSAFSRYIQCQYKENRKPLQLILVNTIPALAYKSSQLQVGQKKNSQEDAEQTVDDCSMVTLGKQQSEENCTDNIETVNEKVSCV

Compound	Ki (dopamine D2 receptor; [1])	Ki (adrenergic α1 receptor)	Ki (serotonin S2 receptor)	Ki (dopamine D2 receptor; Ki value, dopamine D2 receptor)
CCC(F)c1cc(N2CCN(CC)CC2)cc(-c2ccc(F)cc2Cl)c1Cl (stereo not drawn) [Example 156]	1.39 nM	513 nM	29 nM	
CCN1CCN(c2ccc(OC(C)C)c(-c3ccccc3)c2)CC1 [Example 61, 1-Ethyl-4-(3-phenyl-4-isopropxy)phenylpiperazine]	> 1000 nM	> 1000 nM	> 1000 nM	
CCN1CCN(c2cc(-c3ccccc3)c(O)c(-c3ccccc3)c2)CC1 [Example 58, 1-Ethyl-4-(3,5-diphenyl-4-hydroxy)phenylpiperazine]	> 1000 nM	290 nM	> 1000 nM	
CCC(OCc1ccccn1)c1cc(N2CCN(CC)CC2)cc(-c2ccccc2)c1OC (stereo not drawn) [Example 115, 1-Ethyl-4-{3-phenyl-4-methoxy-5-[1-(2-pyridylmethoxy)propyl]}phenylpiperazine]	81.4 nM	> 1000 nM	212 nM	
CCCS(=O)(=O)c1cc(N2CCN(C)CC2)cc(-c2ccccc2Cl)c1Cl [Example 180, 1-Methyl-4-[3-(2-chlorophenyl)-4-chloro-5-propanesulfonyl]phenylpiperazine]	13 nM	> 100 nM	3.48 nM	
CC[C@H](F)c1cc(N2CCN(CC)CC2)cc(-c2ccc(F)cc2C)c1Cl [Example 211, 1-Ethyl-4-{3-[2-(4-fluorotolyl)]-4-chloro-5-[1-(S)-fluoropropnyl]}phenylpiperazine]	4.14 nM	1020 nM	8.81 nM	
CCN1CCN(c2cc(C(=O)Cc3ccncc3)c(OC)c(-c3ccccc3)c2)CC1 [Example 103, 1-Ethyl-4-[3-phenyl-4-methoxy-5-(4-pyridyl)acetyl]phenylpiperazine]	101 nM	> 1000 nM	6.65 nM	
CCN1CCN(c2cc(-c3ccccc3)c(OC)c(S(=O)(=O)CCCOc3ccc(F)cc3)c2)CC1 [Example 181, 1-Ethyl-4-{3-phenyl-4-methoxy-5-[3-(4-fluorophenoxy)propane]sulfonyl}phenylpiperazine]	26.2 nM	> 100 nM	0.5 nM	
CCN1CCN(c2cc(-c3ccccc3)c(OC)c([S+]([O-])CC)c2)CC1 (stereo not drawn) [Example 105, 1-Ethyl-4-(3-phenyl-4-methoxy-5-ethanesulfinyl)phenylpiperazine]	30.2 nM	620 nM	5.21 nM	
CCCC(F)c1cc(N2CCN(CC)CC2)cc(-c2ccccc2Cl)c1Cl (stereo not drawn) [Example 54, 1-Ethyl-4-[3-(2-chlorophenyl)-4-chloro-5-(1-fluorobutyl)]phenylpiperazine]	6.06 nM	> 1000 nM	37.5 nM	
CCN1CCN(c2cc(CCO)c(OC)c(-c3ccccc3)c2)CC1 [Example 66, 1-Ethyl-4-[3-phenyl-4-methoxy-5-(2-hydroxyethyl)]phenylpiperazine]	18.3 nM	127 nM	65.9 nM	
CCN1CCN(c2cc(-c3ccccc3)c(OC)c([S+](C)[O-])c2)CC1 (stereo not drawn) [Example 104, 1-Ethyl-4-(3-phenyl-4-methoxy-5-methanesulfinyl)phenylpiperazine]	70.1 nM	> 1000 nM	24.5 nM	
CCC(F)c1cc(N2CCN(CCO)CC2)cc(-c2ccccc2C)c1Cl (stereo not drawn) [Example 26, 1-(2-Hydroxyethyl)-4-[3-(2-tolyl)-4-chloro-5-(1-fluloropropyl)]phenylpiperazine]	2.67 nM	> 1000 nM	21.6 nM	
CCN1CCN(c2cc(-c3ccccc3)c(OC)c(N(C)S(=O)(=O)CC)c2)CC1 [Example 122, 1-Ethyl-4-[3-phenyl-4-methoxy-5-(N-ethanesulfonyl-N-methylamino)]phenylpiperazine]	45.9 nM	68.1 nM	123 nM	
CCC(F)c1cc(N2CCN(C)CC2)cc(-c2ccccc2Cl)c1Cl (stereo not drawn) [Example 22, 1-Methyl-4-[3-(2-chlorophenyl)-4-chloro-5-(1-fluoropropyl)]phenylpiperazine]	2.84 nM	809 nM	19.2 nM	
CCOCc1cc(N2CCN(CC)CC2)cc(-c2ccccc2C)c1Cl [Example 173, 1-Ethyl-4-[3-(2-tolyl)-4-chloro-5-ethoxymethyl]phenylpiperazine]	19.2 nM	> 1000 nM	> 1000 nM	
CCCS(=O)(=O)Nc1cc(N2CCN(CC)CC2)cc(-c2ccccc2Cl)c1Cl [Example 32, 1-Ethyl-4-[3-(2-chlorophenyl)-4-chloro-5-propanesulfonylamino]phenylpiperazine]	0.38 nM	19.5 nM	3.36 nM	
CCN1CCN(c2cc(CCF)c(OC)c(-c3ccccc3)c2)CC1 [Example 76, 1-Ethyl-4-[3-phenyl-4-methoxy-5-(2-fluoroetheyl)]phenylpiperazine]	50.1 nM	112 nM	145 nM	

Compound	Ki (dopamine D2 receptor; [1])	Ki (adrenergic α1 receptor)	Ki (serotonin S2 receptor)	Ki (dopamine D2 receptor; Ki value, dopamine D2 receptor)
CCC(F)c1cc(N2CCN(C)CC2)cc(-c2ccccc2)c1Cl (stereo not drawn) [Example 206]		47.8 nM	4.29 nM	1.06 nM
CCN1CCN(c2cc(-c3ccccc3C)c(Cl)c(N3CCCC3)c2)CC1 [Example 177]	> 100 nM	> 1000 nM	> 100 nM	
CCN1CCN(c2cc(CCO)cc(-c3ccccc3)c2OC)CC1 [Example 67, 1-Ethyl-4-[2-methoxy-3-phenyl-5-(2-hydroxyethyl)]phenylpiperazine]	> 1000 nM	687 nM	> 1000 nM	
CCCS(=O)(=O)Nc1cc(N2CCN(CC)CC2)cc(-c2ccc(OC)cc2)c1Cl [Example 187, 1-Ethyl-4-[3-(4-methoxyphenyl)-4-chloro-5-propanesulfonyamino]phenylpiperazine]	0.54 nM	7.8 nM	38.2 nM	
CCN1CCN(c2cc(CCCOCOC)c(OC)c(-c3ccccc3)c2)CC1 [Example 69, 1-Ethyl-4-[3-phenyl-4-methoxy-5-(3-methoxymethoxypropyl)]phenylpiperazine]	171 nM	321 nM	67.1 nM	
CCC(=O)c1cc(-c2ccccc2)cc(N2CCN(CC)CC2)c1 [Example 130, 1-Ethyl-4-(3-phenyl-5-propionyl)phenylpiperazine]		70.4 nM	58 nM	29.7 nM
CC[C@@H](F)c1cc(N2CCN(CCO)CC2)cc(-c2ccc(F)cc2C)c1Cl [Example 223, 1-(2-Hydroxyethyl)-4-{3-[2-(4-fluorotolyl)]-4-chloro-5-[1-(R)-fluoropropyl]}phenylpiperazine]	6.61 nM	1510 nM	1860 nM	
CC[C@H](F)c1cc(N2CCN(CCO)CC2)cc(-c2ccc(F)cc2C)c1Cl [Example 222]	6.5 nM	1040 nM	12 nM	
CCN1CCN(c2cc(-c3ccccc3)c(F)c(S(=O)(=O)CC)c2)CC1 [Example 149, 1-Ethyl-4-(3-phenyl-4-fluoro-5-ethanesulfonyl)phenylpiperazine]	6.24 nM	27.2 nM	11.6 nM	
CCCc1cc(N2CCN(CC)CC2)cc(-c2ccccc2F)c1OC [Example 84, 1-Ethyl-4-[3-(2-fluorophenyl)-4-methoxy-5-propyl]phenylpiperazine]	44.6 nM	> 1000 nM	66.2 nM	
CCN1CCN(c2cc(CO)c(OC)c(-c3ccccc3)c2)CC1 [Example 102, 1-Ethyl-4-(3-phenyl-4-methoxy-5-hydroxymethyl)phenylpiperazine]	> 1000 nM	525 nM	> 1000 nM	
CCCC(F)c1cc(N2CCN(C)CC2)cc(-c2ccccc2C)c1Cl (stereo not drawn) [Example 53, 1-Methyl-4-[3-(2-tolyl)-4-chloro-5-(1-fluorobutyl)]phenylpiperazine]	6.73 nM	> 1000 nM	12.4 nM	
CCN1CCN(c2cc(C(=O)Cc3ccccc3)c(OC)c(-c3ccccc3)c2)CC1 [Example 92, 1-Ethyl-4-(3-phenyl-4-methoxy-5-phenylacetyl)phenylpiperazine]	2.71 nM	942 nM	1.14 nM	
CCN1CCN(c2cc(C(=O)c3ccccn3)c(OC)c(-c3ccccc3)c2)CC1 [Example 109, 1-Ethyl-4-[3-phenyl-4-methoxy-5-(2-pyridylcarbonyl)]phenylpiperazine]	> 1000 nM	> 1000 nM	230 nM	
CCCS(=O)(=O)c1cc(N2CCN(C)CC2)cc(-c2ccc(F)cc2)c1OC [Example 193, 1-Methyl-4-[3-(4-fluorophenyl)-4-methoxy-5-propanesulfonyl]phenylpiperazine]	19.3 nM	585 nM	1.61 nM	
CCCNc1cc(N2CCN(CC)CC2)cc(-c2ccccc2)c1OC [Example 117, 1-Ethyl-4-(3-phenyl-4-methoxy-5-propylamino)phenylpiperazine]	49.6 nM	334 nM	148 nM	
CCCc1cc(N2CCN(CC)CC2)cc(-c2ccc(F)cc2F)c1OC [Example 91, 1-Ethyl-4-[3-(2,4-difluorophenyl)-4-methoxy-5-propyl]phenylpiperazine]	7.34 nM	323 nM	37.1 nM	
